Experimental data reported in patent EP0731697B1, “SSI TYRPHOSTINS AND PHARMACEUTICAL COMPOSITIONS” (priority 1993, dated 1995).

Columns and labels:
granulocytes = assay: LPS-induced granulocyte accumulation in lungs and blood leukocyte changes; type: in vivo, Mouse
Description: As shown, tyrphostins exert a dramatic protective effect against LPS-induced lethal toxicity. Of the effects studied, only LPS-induced accumulation of granulocytes in the lungs and alteration in blood lymphocyte and granulocytes were not affected by SSI 3. […] The indication is therefore that tyrphostins are effective in preventing septic shock following Gram-negative sepsis, experimentally or clinically.
Mouse blood leukocyte count and differential analysis were done using Cell-Dyn 1600, Hematology Analyzer (Sequoia Turner Corporation, U.S.A).

EGF receptor = EGF receptor (Homo sapiens, UniProt P00533); conditions: even at concentrations above 100 uM; cited from earlier work
EGF receptor, sequence (P00533 25-1210): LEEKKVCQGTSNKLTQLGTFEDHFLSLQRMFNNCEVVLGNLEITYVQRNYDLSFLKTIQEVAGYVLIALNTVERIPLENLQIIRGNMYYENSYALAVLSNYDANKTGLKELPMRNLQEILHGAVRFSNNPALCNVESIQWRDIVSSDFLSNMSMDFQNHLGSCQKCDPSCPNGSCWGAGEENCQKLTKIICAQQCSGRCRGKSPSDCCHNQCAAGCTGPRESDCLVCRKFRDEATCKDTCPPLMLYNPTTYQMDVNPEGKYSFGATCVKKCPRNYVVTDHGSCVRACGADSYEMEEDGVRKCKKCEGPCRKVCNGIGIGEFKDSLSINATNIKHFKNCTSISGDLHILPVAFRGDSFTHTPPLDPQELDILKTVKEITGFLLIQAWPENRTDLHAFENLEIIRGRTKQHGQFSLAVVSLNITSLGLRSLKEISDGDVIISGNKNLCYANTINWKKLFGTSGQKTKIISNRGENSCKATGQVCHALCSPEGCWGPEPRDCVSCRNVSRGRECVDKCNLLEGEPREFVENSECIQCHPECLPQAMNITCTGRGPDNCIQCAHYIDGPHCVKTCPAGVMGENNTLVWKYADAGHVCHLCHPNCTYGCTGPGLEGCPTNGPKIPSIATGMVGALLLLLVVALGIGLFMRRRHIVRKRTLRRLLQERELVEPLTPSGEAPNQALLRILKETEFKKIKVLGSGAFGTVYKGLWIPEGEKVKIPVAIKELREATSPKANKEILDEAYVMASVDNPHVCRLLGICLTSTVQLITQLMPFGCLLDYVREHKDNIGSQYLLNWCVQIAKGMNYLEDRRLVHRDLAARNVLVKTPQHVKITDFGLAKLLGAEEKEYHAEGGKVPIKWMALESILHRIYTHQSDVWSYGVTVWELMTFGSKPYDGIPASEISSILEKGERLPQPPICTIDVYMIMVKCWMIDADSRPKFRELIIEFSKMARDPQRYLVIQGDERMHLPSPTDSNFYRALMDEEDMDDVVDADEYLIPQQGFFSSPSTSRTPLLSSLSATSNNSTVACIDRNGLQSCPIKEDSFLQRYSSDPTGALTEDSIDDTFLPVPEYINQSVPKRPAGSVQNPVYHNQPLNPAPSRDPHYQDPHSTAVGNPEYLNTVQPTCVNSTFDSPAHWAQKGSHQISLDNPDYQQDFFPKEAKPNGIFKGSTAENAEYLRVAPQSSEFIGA

mice = assay: LPS-induced lethal toxicity in mice

SMILES: N#CC(C#N)=Cc1ccc([N+](=O)[O-])c(O)c1 [SSI 3]
- alteration in blood lymphocyte and granulocytes (granulocytes; LPS-induced): not affected
- LPS-induced accumulation of granulocytes in the lungs (granulocytes; mouse, in vivo): not affected
- effect on EGF receptor (EGF receptor): no effect
- extent of lethality (mice; 400 ug/mouse i.p. two hrs prior to LPS 1.5 mg/mouse, within 5 days, 2 mice out of 20, LPS alone 95%): 10%
- minimal dose that provided essentially full protection against LPS induced lethal toxicity (mice; LPS 1.5 mg/mouse, administered 2 hours prior to LPS): 400 ug/mouse
- protective effect on the LPS-induced lethal toxicity (mice; administered 2 hours after LPS): essentially no protective effect
- preventing the lethal toxicity (mice; administered at the time of LPS treatment, compared with 2 hr prior to LPS): less effective
- protection against LPS induced lethal toxicity (mice; doses of 100 and 200 ug/mouse, 5 mice over 6 days): partial protection
